Experimental data as given in article PMC7000700, “RyR1-targeted drug discovery pipeline integrating FRET-based high-throughput screening and human myofiber dynamic Ca^2+ assays” (Scientific Reports, 2020).
“Also recorded” adds a separate entry of the source.

Key:
[1] = test system: RyR1 Ca^2+ leak in human skinned skeletal muscle fibers; test: t-system Ca2+ readout of RyR1 Ca2+ leak in human mechanically skinned skeletal muscle fibers; settings: for Reduction of RyR1 Ca2+ leak: at identified compound concentrations that only slightly affected Ca2+ release in EC coupling
RyR1 = RyR1 (Sus scrofa, UniProt P16960); test: FLT-FRET between D-FKBP and A-CaM bound to RyR1 in skeletal SR membranes (HTS and dose-response); assay type: binding, porcine; set-up: RyR1 in skeletal SR membranes, and RyR2 in cardiac SR membranes; from tissue; host or cells: porcine longissimus dorsi muscle (heavy SR vesicles); settings: 30 nM Ca2+; for Effect on FRET: RyR1 samples, micromolar compound, GSSG or GSH
RyR1, sequence (P16960 whole entry): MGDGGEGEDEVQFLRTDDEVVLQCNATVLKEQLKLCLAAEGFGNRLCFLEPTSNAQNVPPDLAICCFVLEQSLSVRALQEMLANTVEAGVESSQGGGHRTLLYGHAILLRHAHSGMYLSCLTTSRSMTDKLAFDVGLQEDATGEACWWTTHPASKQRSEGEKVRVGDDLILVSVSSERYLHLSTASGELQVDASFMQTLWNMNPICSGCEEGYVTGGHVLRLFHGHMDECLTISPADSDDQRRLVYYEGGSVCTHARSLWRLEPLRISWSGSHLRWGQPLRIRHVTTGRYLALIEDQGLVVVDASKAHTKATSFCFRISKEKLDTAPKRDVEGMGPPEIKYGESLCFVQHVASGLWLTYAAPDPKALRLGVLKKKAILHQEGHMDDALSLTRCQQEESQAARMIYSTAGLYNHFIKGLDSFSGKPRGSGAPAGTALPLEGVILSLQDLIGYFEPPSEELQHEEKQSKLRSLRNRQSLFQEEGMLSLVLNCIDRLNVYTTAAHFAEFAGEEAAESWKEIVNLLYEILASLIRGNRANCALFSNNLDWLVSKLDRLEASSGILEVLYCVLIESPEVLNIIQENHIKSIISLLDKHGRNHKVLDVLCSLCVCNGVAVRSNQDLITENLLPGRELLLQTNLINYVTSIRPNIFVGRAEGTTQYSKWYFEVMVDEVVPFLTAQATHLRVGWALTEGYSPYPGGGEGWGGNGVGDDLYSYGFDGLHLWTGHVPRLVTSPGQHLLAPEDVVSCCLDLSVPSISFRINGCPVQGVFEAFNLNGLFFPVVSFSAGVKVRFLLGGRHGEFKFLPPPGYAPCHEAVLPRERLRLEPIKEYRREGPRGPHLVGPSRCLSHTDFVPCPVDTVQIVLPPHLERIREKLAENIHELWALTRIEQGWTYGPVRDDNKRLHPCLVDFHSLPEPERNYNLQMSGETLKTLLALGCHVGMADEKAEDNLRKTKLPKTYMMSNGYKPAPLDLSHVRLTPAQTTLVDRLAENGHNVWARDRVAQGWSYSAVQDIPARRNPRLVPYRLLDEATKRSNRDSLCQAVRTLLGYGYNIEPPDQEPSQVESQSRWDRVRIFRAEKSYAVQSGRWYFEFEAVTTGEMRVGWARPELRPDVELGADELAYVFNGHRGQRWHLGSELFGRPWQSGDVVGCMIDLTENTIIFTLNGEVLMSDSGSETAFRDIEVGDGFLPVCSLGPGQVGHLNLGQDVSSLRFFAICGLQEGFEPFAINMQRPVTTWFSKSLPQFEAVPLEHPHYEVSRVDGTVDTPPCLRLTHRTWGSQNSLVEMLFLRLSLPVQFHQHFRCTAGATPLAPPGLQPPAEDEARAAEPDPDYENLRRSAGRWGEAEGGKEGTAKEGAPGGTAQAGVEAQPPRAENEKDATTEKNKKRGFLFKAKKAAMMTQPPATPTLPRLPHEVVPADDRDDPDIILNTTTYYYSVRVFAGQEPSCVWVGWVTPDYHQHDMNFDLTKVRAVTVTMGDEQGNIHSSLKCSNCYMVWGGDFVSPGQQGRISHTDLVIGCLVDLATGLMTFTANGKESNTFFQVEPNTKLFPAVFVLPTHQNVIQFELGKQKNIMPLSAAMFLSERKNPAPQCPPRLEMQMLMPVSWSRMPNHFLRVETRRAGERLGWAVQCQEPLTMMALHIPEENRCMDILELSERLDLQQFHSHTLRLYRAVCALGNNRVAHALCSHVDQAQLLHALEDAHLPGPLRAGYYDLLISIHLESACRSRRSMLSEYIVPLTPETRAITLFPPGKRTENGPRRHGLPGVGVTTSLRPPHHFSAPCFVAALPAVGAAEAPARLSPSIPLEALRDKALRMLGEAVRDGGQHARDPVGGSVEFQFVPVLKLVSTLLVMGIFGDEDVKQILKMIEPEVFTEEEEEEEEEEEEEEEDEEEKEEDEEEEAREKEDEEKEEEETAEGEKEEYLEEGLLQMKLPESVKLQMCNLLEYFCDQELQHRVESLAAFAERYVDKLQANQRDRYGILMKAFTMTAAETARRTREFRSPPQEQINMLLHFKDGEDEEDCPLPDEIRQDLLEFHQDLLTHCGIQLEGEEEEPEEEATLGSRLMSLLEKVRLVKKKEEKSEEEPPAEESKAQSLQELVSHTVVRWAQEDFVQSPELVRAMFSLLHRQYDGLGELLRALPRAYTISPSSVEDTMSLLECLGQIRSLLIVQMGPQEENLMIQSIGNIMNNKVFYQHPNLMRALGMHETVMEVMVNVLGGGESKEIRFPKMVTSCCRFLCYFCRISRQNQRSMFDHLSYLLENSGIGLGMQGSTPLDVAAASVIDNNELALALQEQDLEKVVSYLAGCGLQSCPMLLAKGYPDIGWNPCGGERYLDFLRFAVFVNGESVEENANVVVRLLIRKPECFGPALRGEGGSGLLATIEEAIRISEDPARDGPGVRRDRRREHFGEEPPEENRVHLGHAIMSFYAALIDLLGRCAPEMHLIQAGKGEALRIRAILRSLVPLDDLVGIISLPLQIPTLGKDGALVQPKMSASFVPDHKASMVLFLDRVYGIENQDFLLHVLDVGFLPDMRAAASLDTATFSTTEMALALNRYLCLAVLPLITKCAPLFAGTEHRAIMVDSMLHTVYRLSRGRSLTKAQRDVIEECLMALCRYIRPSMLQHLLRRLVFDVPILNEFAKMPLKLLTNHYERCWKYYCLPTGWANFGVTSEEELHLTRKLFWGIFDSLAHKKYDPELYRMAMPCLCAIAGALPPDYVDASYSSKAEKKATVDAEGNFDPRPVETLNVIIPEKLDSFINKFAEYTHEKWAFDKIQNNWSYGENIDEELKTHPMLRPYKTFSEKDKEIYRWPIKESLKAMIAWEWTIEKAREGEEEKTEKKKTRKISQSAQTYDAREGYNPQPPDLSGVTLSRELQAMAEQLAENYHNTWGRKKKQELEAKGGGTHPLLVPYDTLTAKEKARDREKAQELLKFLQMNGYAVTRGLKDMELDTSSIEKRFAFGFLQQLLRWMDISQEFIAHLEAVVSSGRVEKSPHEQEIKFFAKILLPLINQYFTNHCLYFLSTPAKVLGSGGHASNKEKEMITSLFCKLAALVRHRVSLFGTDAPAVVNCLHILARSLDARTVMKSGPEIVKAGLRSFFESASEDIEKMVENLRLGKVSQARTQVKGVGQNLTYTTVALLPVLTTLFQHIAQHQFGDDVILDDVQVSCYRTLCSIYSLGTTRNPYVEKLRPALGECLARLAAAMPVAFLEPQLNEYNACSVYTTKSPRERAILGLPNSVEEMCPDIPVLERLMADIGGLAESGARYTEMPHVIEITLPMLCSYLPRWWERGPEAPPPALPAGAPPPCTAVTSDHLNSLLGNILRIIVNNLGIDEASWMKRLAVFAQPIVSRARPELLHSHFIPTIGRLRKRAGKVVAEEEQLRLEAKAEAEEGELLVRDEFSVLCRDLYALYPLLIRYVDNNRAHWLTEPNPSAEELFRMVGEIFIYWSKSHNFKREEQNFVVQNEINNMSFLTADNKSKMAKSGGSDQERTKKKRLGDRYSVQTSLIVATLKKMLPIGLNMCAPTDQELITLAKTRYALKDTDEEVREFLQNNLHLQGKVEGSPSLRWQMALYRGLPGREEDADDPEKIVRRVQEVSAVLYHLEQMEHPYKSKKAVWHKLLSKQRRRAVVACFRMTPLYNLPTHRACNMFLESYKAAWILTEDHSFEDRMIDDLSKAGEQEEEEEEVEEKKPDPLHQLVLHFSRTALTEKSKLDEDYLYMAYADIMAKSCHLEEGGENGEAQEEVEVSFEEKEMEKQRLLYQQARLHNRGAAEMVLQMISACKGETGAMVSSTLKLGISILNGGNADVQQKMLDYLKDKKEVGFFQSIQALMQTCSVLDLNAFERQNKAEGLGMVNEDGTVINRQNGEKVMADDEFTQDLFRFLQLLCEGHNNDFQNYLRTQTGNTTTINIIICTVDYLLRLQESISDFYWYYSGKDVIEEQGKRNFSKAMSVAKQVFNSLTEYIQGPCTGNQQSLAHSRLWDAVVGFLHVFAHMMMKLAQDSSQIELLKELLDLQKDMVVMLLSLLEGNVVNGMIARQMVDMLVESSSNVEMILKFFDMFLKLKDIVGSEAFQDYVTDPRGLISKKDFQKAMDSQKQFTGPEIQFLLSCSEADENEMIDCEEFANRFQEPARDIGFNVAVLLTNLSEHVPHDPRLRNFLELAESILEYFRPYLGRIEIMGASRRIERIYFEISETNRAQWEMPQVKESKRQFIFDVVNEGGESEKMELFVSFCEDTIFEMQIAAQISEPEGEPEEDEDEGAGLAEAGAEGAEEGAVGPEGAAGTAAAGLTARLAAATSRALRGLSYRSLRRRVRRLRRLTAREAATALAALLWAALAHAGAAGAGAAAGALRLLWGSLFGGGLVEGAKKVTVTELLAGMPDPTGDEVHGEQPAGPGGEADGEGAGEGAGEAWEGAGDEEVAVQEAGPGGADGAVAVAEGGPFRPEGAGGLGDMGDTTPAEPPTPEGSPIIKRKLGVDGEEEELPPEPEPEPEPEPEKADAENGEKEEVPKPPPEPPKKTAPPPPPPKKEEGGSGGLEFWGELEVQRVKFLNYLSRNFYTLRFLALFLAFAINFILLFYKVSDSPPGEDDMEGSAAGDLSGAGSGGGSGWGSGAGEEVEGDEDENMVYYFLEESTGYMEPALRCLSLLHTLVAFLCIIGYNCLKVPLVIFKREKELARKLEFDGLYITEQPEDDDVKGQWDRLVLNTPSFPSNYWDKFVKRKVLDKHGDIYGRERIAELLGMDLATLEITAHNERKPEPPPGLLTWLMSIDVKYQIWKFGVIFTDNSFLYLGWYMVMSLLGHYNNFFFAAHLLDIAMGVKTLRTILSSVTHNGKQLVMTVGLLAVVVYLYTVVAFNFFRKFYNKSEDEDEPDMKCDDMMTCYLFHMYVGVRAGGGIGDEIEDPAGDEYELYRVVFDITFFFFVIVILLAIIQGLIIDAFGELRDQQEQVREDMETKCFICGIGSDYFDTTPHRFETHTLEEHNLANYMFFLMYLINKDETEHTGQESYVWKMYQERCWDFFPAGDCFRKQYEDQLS
Experimental: To confer compatibility with current HTS standards in industrial drug discovery facilities, we miniaturized our screening format from the previously established 384-well plates, requiring 50 μL sample per well[19], to 1536-well plates, requiring 5 μL sample per well. The complete 1280-compound library of pharmacologically active compounds (LOPAC) was applied as 5 nL/well in 40 columns of one 1536-well black-wall/black-bottom plate, with the remaining 8 columns loaded with 5 nL/well of DMSO, as no-drug controls. For each run of the screen, three plates were loaded with either (1) unlabeled HSR, or (2) HSR pre-incubated with donor-FKBP (D-FKBP; donor-only sample), or (3) donor-only sample that was additionally incubated with 0.3 μM acceptor-CaM (A-CaM) for 60 min prior to loading on the plate (donor-acceptor sample). This sub-saturating concentration of A-CaM was used to provide a readout that is sensitive to library compounds that may increase or decrease CaM binding affinity to RyR. To promote a homogenous population of RyR1 resembling that associated with myopathies, final assay conditions also included 30 nM Ca^2+ to represent resting (muscle relaxing) Ca^2+, and 5 mM oxidized glutathione (GSSG), which exaggerates the conditions associated with oxidative stress.
We acquired both FLT waveforms and fluorescence spectra, as previously described[19],[33],[34]. As previously observed, Hit effects were greatest following a 2-hour incubation with the library compounds (Supplementary Fig. 1a). As a result, all FRET results shown in Figs. 1 and 2, and Supplementary Fig. 2 are reported from the 2-hour incubation.
Necessary counter-screens to our pathological RyR1 conditions include evaluating compound effects in healthy conditions and on the cardiac isoform, RyR2. Using the same FRET assay as in HTS, we tested the dose response of key Hits from this screen and the previously HTS-identified RyR1 inhibitor, chloroxine, on healthy (5 mM GSH) and pathological (5 mM GSSG) conditions for both RyR1 in skeletal SR membranes, and RyR2 in cardiac SR membranes.
Skeletal HSR and cardiac CSR (0.4 mg/ml) membranes were independently pre-incubated with 60 nM D-FKBP, for 90 min, at 37 °C, in a solution containing 150 mM KCl, 5 mM GSH, 0.1 mg/mL BSA, 1 µg/mL Aprotinin/Leupeptin, 1 mM DTT and 20 mM PIPES (pH 7.0). To remove unbound D-FKBP, the SR membranes were spun down at 110,000 × g for 20 min, and then resuspended to 1 mg/mL (skeletal HSR) and 2 mg/mL (cardiac CSR) in binding buffer consisting of 150 mM KCl, 5 mM GSSG, 0.1 mg/mL BSA, 1μg/mL Aprotinin/Leupeptin and 20 mM PIPES, pH 7.0. These samples were then incubated with indicated [A-CaM] for 30 min at 22 °C in binding buffer containing 0.065 mM CaCl2 to give 30 nM free Ca^2+ in the presence of 1 mM EGTA (calculated by MaxChelator). This labeled SR sample was applied to the assay plates in 5 μL aliquots using a Multidrop™ Combi reagent dispenser (Thermo Scientific) with a standard-tube. An additional set of the assay plates were loaded with skeletal HSR or cardiac CSR labeled with only D-FKBP (no added A-CaM).
FLT measurements were conducted in a top-read FLT-PR designed and built by Fluorescence Innovations, Inc[33]. AF488 donor fluorescence was excited with a 473-nm microchip laser from Concepts Research Corporation (Belgium, WI), and emission was acquired with 490-nm long-pass and 517/20-nm band-pass filters (Semrock, Rochester, NY).
FLT waveforms for each well were fit based on a one-exponential decay function using least-squares minimization global-analysis software (Fluorescence Innovations, Inc.), as previously described[19],[33]. FRET efficiency (E) was determined as the fractional decrease of donor FLT (τD), due to the presence of acceptor fluorophore (τDA), using the following equation:1 E=1−τDA/τD, […]

[2] = 10 μM compound, 200 nM [Ca2+]cyto

Effect on FRET (RyR1) | SMILES | Effect on steady-state [Ca2+]t-sys vs control (RyR1 leak) ([1]; 1 μM compound, 200 nM [Ca2+]cyto) | Effect on [Ca2+]t-sys relative to RyR blocker tetracaine [1, 2] | Effect on steady-state [Ca2+]t-sys vs control (RyR1 leak) [1, 2] | Reduction of RyR1 Ca2+ leak [1] [%] | Hit in primary FLT-FRET HTS of LOPAC (FRET altered by > 4 SD vs DMSO) (RyR1; 10 μM compound, 2-hour incubation, 5 mM GSSG, 0.3 μM A-CaM, 1536-well) | Effect on steady-state [Ca2+]t-sys vs control (RyR1 leak) ([1]; 100 μM compound, 200 nM [Ca2+]cyto) | Effect on steady-state [Ca2+]t-sys (RyR1 leak) ([1]; all three concentrations tested (1, 10 and 100 μM), towards level of 1 mM tetracaine)
increases FRET | O=c1c(O)c(-c2cc(O)c(O)c(O)c2)oc2cc(O)cc(O)c12 [myricetin] | decreased | went beyond the effects of 1 mM tetracaine | decreased | > 50 | identified; also recorded: increased the FRET efficiency readout | – | –
increased | Oc1c(Cl)cc(Cl)c2cccnc12 [chloroxine] | – | – | – | > 50 | – | statistically decreased | progressively reduced
